Literature values, collected in paper PMC12304798 (British Journal of Clinical Pharmacology, 2025).
Like-named read-outs stand apart in the source and are kept apart here.

How the values were obtained:
[1] = test system: NE activity; settings: once-daily doses, healthy volunteers
[2] = test system: NE activity
[3] = healthy Japanese and Caucasian volunteers

SMILES | reduction in NE activity [1] | inhibitory effect on NE activity ([2]; brensocatib 10 mg) [%] | inhibitory effect on NE activity ([2]; brensocatib 25 mg) [%] | skin exfoliation, share of volunteers [3] [%]
CC[C@@H](/C=C/C(=O)N1CCc2ccccc21)NC(=O)C1(N)CCOCC1 [GSK2793660] | approximately 20% | – | – | –
Cn1c(=O)oc2ccc(-c3ccc(C[C@@H](C#N)NC(=O)[C@@H]4CNCCCO4)cc3)cc21 [brensocatib] | – | 30 | 49 | 10
